In ChEMBL document CHEMBL1142838, “Design and synthesis of phthalimide-type histone deacetylase inhibitors” (Bioorg Med Chem Lett, 2005):

Experiments:
[1] = target: Histone deacetylase; experiment: Effective concentration for inhibition of histone deacetylase; format: protein assay, Homo sapiens
[2] = target: Histone deacetylase 1 (Homo sapiens, UniProt Q13547)
[3] = target: Histone deacetylase 4 (Homo sapiens, UniProt P56524)
[4] = target: T1, Protein deacetylase HDAC6 (Homo sapiens, UniProt Q9UBN7)
T1 sequence (Q9UBN7 whole entry): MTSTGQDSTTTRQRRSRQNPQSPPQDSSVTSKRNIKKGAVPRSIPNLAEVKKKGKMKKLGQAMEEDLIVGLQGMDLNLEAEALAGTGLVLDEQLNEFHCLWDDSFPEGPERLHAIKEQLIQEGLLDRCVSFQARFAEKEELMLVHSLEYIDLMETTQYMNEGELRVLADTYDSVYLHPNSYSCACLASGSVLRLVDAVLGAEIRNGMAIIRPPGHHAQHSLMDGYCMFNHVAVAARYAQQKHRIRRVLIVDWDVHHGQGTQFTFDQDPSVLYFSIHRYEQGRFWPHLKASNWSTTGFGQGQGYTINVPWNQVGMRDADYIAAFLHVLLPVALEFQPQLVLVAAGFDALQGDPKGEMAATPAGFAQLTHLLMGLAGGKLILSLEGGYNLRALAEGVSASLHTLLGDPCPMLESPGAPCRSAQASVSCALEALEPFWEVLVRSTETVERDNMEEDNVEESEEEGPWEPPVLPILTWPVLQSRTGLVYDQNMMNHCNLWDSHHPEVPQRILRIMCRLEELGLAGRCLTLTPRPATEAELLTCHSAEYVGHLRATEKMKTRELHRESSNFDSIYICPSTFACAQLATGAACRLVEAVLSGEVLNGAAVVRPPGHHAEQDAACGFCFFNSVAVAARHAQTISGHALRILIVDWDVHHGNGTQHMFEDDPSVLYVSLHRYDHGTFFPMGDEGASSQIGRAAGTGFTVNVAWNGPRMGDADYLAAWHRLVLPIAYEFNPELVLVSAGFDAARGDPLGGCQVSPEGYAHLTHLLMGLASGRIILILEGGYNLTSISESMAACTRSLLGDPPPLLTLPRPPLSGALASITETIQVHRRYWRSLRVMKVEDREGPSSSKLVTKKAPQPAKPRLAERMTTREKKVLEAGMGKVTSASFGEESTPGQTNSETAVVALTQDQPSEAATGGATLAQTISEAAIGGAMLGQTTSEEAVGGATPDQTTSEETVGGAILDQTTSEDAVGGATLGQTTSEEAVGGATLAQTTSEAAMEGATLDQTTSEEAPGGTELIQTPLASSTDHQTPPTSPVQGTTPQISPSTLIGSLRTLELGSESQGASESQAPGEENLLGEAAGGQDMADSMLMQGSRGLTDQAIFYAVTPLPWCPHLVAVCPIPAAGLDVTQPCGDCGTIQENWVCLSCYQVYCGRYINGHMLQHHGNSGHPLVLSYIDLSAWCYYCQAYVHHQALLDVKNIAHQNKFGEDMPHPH

Sequence of Histone deacetylase 1 (Q13547 whole entry): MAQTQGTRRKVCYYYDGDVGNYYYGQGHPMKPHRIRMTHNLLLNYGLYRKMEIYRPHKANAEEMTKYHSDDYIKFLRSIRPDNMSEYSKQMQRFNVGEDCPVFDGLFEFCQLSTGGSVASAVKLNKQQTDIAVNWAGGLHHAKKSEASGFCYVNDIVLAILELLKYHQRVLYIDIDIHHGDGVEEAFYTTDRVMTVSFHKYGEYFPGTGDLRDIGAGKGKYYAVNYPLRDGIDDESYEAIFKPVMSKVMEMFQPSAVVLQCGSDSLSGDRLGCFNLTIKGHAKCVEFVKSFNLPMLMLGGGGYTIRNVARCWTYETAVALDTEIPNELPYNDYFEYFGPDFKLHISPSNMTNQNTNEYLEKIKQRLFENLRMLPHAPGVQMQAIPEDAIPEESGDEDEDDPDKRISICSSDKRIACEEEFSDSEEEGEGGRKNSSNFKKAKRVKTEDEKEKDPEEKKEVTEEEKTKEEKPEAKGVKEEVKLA
Sequence of Histone deacetylase 4 (P56524 whole entry): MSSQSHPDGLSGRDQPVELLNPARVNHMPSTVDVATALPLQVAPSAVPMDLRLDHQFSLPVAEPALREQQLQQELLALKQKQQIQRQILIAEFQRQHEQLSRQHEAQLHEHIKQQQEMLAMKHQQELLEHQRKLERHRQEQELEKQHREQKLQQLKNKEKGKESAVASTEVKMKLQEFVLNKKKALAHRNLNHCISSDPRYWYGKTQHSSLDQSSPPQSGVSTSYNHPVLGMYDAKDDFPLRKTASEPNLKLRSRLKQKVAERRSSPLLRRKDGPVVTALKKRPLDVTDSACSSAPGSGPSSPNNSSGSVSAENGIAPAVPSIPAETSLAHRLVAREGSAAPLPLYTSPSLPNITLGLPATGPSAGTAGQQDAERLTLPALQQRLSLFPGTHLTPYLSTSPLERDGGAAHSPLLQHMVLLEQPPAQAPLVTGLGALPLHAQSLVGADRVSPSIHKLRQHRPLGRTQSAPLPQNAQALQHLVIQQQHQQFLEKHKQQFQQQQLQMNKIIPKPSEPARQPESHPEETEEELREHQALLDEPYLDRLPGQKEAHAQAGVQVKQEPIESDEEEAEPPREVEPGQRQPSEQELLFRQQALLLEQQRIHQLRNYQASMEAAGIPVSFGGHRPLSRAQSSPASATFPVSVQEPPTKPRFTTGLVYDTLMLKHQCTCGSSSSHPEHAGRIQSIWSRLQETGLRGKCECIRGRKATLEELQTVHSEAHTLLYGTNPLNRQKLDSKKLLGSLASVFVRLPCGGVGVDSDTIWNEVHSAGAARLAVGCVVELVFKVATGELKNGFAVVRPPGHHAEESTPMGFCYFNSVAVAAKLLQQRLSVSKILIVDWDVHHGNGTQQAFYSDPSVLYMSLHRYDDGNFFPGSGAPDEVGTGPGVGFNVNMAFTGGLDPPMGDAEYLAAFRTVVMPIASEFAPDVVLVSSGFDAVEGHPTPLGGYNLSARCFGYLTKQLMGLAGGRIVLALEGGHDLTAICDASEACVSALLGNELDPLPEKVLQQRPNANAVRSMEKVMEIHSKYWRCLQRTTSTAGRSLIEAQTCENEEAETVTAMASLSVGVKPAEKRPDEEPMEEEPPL

SMILES	EC50 [1]	other results
C[C@H](c1ccccc1)N1C(=O)c2ccc(/C=C/C(=O)NO)cc2C1=O	291 nM	
O=C(/C=C/c1ccc2c(c1)C(=O)N([C@@H](COC(=O)c1ccccc1)c1ccccc1)C2=O)NO	3790 nM	
O=C(CCc1ccc2c(c1)C(=O)N(Cc1ccccc1)C2=O)NO	407 nM	
O=C(NO)c1ccc2c(c1)C(=O)N(CCc1ccccc1)C2=O	6630 nM	
O=C(/C=C/c1ccc2c(c1)C(=O)N([C@H](COC(=O)c1ccccc1)c1ccccc1)C2=O)NO	763 nM	
O=C(/C=C/c1ccc2c(c1)C(=O)N(Cc1ccccc1)C2=O)NO	148 nM	IC50 [2]: 572 nM; IC50 [3]: 358 nM; IC50 [4]: 709 nM
Cc1ccc(CN2C(=O)c3ccc(/C=C/C(=O)NO)cc3C2=O)cc1	474 nM	
O=C(NO)c1ccc2c(c1)C(=O)N(c1ccccc1)C2=O	125000 nM	
O=C(/C=C/c1ccc2c(c1)C(=O)N(CCc1ccccc1)C2=O)NO	177 nM	
O=C(/C=C/c1ccc2c(c1)C(=O)N(c1ccccc1)C2=O)NO	2080 nM	
O=C(/C=C/c1ccc2c(c1)C(=O)N(CC(c1ccccc1)c1ccccc1)C2=O)NO	7890 nM	
C[C@@H](c1ccccc1)N1C(=O)c2ccc(/C=C/C(=O)NO)cc2C1=O	250 nM	
O=C(/C=C/c1ccc2c(c1)C(=O)N(C(c1ccccc1)c1ccccc1)C2=O)NO	2090 nM	
COc1ccc(CN2C(=O)c3ccc(/C=C/C(=O)NO)cc3C2=O)cc1	186 nM	
O=C(NO)c1ccc2c(c1)C(=O)N(Cc1ccccc1)C2=O	4160 nM	
